Data published in patent US6844356B2, “Hemorrhoid therapeutic treatment” (priority 2003, dated 2005).

Experiments:
[1] = cited from earlier work
hemorrhoid = assay: injection of the solution into the hemorrhoid of patients; format: in vivo; settings: injected into the hemorrhoid as water solution
Protocol: A chemical treatment for the permanent relief of hemorrhoids is provided by the chemical composition of this invention. The composition comprises a mixture of Yong Noe, a Chinese herb known to Western man as camphor, quinine, and distilled water. These two ingredients are ground into powder and dissolved in distilled water. The composition is then injected by a medical practitioner into the affected area at least once, and perhaps several times, over a two week period. After a period of time, the hemorrhoidal tissue will turn dark, harden, and flake off leaving the skin clear at the site of the former hemorrhoid. A mixture of Yong Noe and quinine in a […] in an amount of 37.5 grams are divided into 7 equal weight portions. Each portion of the mixture is dissolved in 4 grams of water by placing the composition in a container in boiling water for 3-5 minutes. The composition is a clear whitish solution. This solution is used at room temperature as the medicament for the treatment of hemorrhoids as will be discussed infra. […] The composition of 37.5 grams of solids is comprised of 25 grams of quinine and 12.5 grams of camphor. This mixture is equally divided and filled into seven different 10 cc vials, and 4 cc distilled water is added to each vial. […]

Row | SMILES | solubility [1] | result of injection into the hemorrhoid (hemorrhoid)
1 | CC12CCC(CC1=O)C2(C)C (centres unmarked) [Camphor] | only slightly soluble in water | 
2 | C=C[C@H]1C[N@@]2CC[C@H]1C[C@H]2[C@H](O)c1ccnc2ccc(OC)cc12 [quinine alone, quinine] |  | not effectual
